Measurements reported in ChEMBL document CHEMBL5050844 (2019).

Tests used:
[1] = Induction of anti-CD3/CD28 antibodies-stimulated human T cell activation at 0.3 uM assessed fold increase in CD25 expression measured by ELISA assay; assay type: functional, T cell line
[2] = Induction of anti-CD3 antibodies-stimulated human T cell activation at 1 uM assessed fold increase in IL-2 secretion measured by ELISA assay; assay type: functional, T cell line; note: reference of the scale not given here
[3] = Induction of anti-CD3/CD28 antibodies-stimulated human T cell activation at 0.3 uM assessed fold increase in IL-2 secretion measured by ELISA assay; assay type: functional, T cell line
[4] = Induction of anti-CD3/CD28 antibodies-stimulated human T cell activation at 1 uM assessed fold increase in CD25 expression measured by ELISA assay; assay type: functional, T cell line
[5] = Induction of anti-CD3 antibodies-stimulated human T cell activation at 8 uM assessed fold increase in IL-2 secretion measured by ELISA assay; assay type: functional, T cell line; note: reference of the scale not given here
[6] = Induction of anti-CD3 antibodies-stimulated human T cell activation at 8 uM assessed fold increase in CD25 expression measured by ELISA assay; assay type: functional, T cell line; note: reference of the scale not given here
[7] = Induction of anti-CD3/CD28 antibodies-stimulated human T cell activation at 4 uM assessed fold increase in IL-2 secretion measured by ELISA assay; assay type: functional, T cell line
[8] = target: E3 ubiquitin-protein ligase CBL-B (Homo sapiens, UniProt Q13191); test: Inhibition of N-terminal Avi-tagged human CBL-B (36 to 427 residues) incubated with 60 nM Src kinase for 1.5 hrs followed by incubation with fluorescently labeled UbcH5B-Ub for 1 hr and measured by TR-FRET assay; assay type: single protein
[9] = Induction of anti-CD3/CD28 antibodies-stimulated human T cell activation at 1 uM assessed fold increase in IL-2 secretion measured by ELISA assay; assay type: functional, T cell line
[10] = Induction of anti-CD3/CD28 antibodies-stimulated human T cell activation at 4 uM assessed fold increase in CD25 expression measured by ELISA assay; assay type: functional, T cell line
[11] = Induction of anti-CD3 antibodies-stimulated human T cell activation at 1 uM assessed fold increase in CD25 expression measured by ELISA assay; assay type: functional, T cell line; note: reference of the scale not given here

E3 ubiquitin-protein ligase CBL-B, sequence (Q13191 whole entry, the tested form may be a part): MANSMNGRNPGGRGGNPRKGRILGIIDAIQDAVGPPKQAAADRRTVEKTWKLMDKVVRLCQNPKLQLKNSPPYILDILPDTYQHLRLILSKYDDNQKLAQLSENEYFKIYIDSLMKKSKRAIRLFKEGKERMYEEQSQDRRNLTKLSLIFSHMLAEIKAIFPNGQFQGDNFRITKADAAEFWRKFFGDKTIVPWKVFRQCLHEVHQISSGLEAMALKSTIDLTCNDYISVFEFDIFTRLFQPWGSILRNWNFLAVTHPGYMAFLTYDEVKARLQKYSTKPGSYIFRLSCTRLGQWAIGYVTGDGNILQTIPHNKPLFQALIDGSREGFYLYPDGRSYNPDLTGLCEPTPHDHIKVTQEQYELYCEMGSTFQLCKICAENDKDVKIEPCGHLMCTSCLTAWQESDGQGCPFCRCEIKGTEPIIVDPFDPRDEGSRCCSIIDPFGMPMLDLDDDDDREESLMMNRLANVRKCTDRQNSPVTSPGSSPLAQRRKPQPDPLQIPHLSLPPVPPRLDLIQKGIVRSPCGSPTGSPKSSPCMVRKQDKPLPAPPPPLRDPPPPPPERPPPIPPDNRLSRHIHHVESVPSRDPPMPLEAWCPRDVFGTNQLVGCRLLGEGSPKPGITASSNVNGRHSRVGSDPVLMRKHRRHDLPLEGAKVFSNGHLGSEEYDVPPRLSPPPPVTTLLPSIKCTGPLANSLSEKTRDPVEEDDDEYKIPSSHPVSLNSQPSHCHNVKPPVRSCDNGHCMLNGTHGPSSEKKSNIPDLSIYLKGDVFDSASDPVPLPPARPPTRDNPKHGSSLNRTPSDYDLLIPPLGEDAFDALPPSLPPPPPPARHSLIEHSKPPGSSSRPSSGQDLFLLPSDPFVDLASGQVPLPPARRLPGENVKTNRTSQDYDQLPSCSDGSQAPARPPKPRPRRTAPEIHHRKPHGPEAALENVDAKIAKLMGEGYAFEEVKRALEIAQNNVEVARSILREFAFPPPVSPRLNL

Structure (SMILES)	IC50 [8]	fold change (FC) [1]	fold change (FC) [2]	fold change (FC) [3]	fold change (FC) [4]	fold change (FC) [5]	fold change (FC) [6]	fold change (FC) [7]	fold change (FC) [9]	fold change (FC) [10]	fold change (FC) [11]
CN1CC2CCC(C1)N2c1cc2c(c(C(F)(F)F)c1)CN(c1cccc([C@@](C)(F)C(F)(F)c3nncn3C)c1)C2=O	< 100 nM	1.31	>=0.201	5	1.51	>=0.201	>=1.001	>=7.5	>=7.5	1.51	>=1.001
C[C@H](c1cc2c(c(C(F)(F)F)c1)CN(c1cccc(C3(Cc4nncn4C)COC3)c1)C2=O)N1CCC(F)(F)C1	< 100 nM	1.01	0.151	2.51	1.31	>=0.201	>=1.001	>=7.5	>=7.5	1.31	>=1.001
Cc1ccc(C(=O)Nc2cccc([C@H](C)Sc3nncn3C)c2)nc1C1CC1	< 100 nM	1.01	<=0.05	1.01	1.01	0.151	0.801	>=7.5	2.51	1.01	0.601
Cn1cnnc1CC1(c2cccc(N3Cc4c(cccc4C(F)(F)F)C3=O)c2)CC1	< 100 nM	<=1	0.051	2.51	1.01	>=0.201	>=1.001	5	2.51	1.01	>=1.001
C[C@@H]1CN(C)CCN1c1cc2c(c(C(F)(F)F)c1)CN(c1cccc([C@@](C)(F)C(F)(F)c3nncn3C)c1)C2=O	< 100 nM	1.01	<=0.05	1.01	1.01	0.101	>=1.001	2.51	1.01	1.31	0.801
Cn1cnnc1CC(C)(C)c1cccc(N2Cc3c(cccc3C(F)(F)F)C2=O)c1	< 100 nM	1.01	>=0.201	1.01	1.01	>=0.201	>=1.001	>=7.5	2.51	1.51	0.801
Cn1cnnc1C(F)(F)[C@](C)(F)c1cccc(N2Cc3c(cc(CN4CC(C(F)F)C4)cc3C(F)(F)F)C2=O)c1	< 100 nM	1.31	>=0.201	5	1.31	0.151	>=1.001	>=7.5	>=7.5	1.31	>=1.001
C[C@H](Sc1nncn1C)c1cccc(NC(=O)c2ccc(CO)c(C3CC3)n2)c1	< 100 nM	1.01	<=0.05	1.01	1.01	0.101	0.801	5	2.51	1.31	<=0.6
Cn1cnnc1[C@H](F)C(C)(F)c1cccc(N2Cc3c(cccc3C(F)(F)F)C2=O)c1 (single isomer, unassigned)	< 100 nM	1.01	<=0.05	1.01	1.01	0.101	0.801	1.01	1.01	1.01	0.601

Now from value to compound, other results behind:

IC50 [8]	Structure (SMILES)	fold change (FC) [1]	fold change (FC) [2]	fold change (FC) [3]	fold change (FC) [4]	fold change (FC) [5]	fold change (FC) [6]	fold change (FC) [7]	fold change (FC) [9]	fold change (FC) [10]	fold change (FC) [11]
< 100 nM	C[C@H](Cc1nncn1C)c1cccc(N2Cc3c(cc([C@@H](C)N4CC(O)C4)cc3C(F)(F)F)C2=O)c1	1.01	>=0.201	2.51	1.31	>=0.201	>=1.001	>=7.5	5	1.31	0.801
< 100 nM	C[C@H](Sc1nncn1C)c1cccc(NC(=O)c2ccc(F)c(C3CC3)n2)c1	<=1	<=0.05	1.01	<=1	0.101	>=1.001	>=7.5	2.51	1.01	0.601
< 100 nM	C[C@H](Cc1nncn1C)c1cccc(N2Cc3c(cc(C(=O)N4CC(O)C4)cc3C(F)(F)F)C2=O)c1	1.01	0.051	1.01	1.01	0.151	>=1.001	>=7.5	2.51	1.31	0.801
< 100 nM	C[C@H](Sc1nncn1C)c1cccc(NC(=O)c2ccc(C#N)c(C3CC3)n2)c1	1.01	<=0.05	1.01	1.31	0.101	>=1.001	5	2.51	1.31	0.601
< 100 nM	C[C@H](Cc1nncn1C)c1cccc(N2Cc3c(cc(C(=O)N4CC[C@H](O)C4)cc3C3CC3)C2=O)c1	1.01	0.051	1.01	1.01	0.101	>=1.001	2.51	2.51	1.31	0.801
< 100 nM	Cn1cnnc1C(F)(F)[C@](C)(F)c1cccc(N2Cc3c(cc(CN4C[C@@H](F)[C@@H](F)C4)cc3C(F)(F)F)C2=O)c1	1.31	0.151	2.51	1.31	>=0.201	>=1.001	>=7.5	5	1.51	>=1.001
< 100 nM	C[C@H](Cc1nncn1C)c1cccc(NC(=O)c2cc(O[C@@H]3CC[C@@H](O)C3)ccn2)c1 (relative stereo)	1.01	0.051	2.51	1.01	0.101	>=1.001	5	2.51	1.31	0.801
< 100 nM	Cn1cnnc1CC1(c2cccc(NC(=O)c3cc(C4CC4)nc(C(F)(F)F)n3)c2)COC1	1.01	0.151	2.51	1.31	>=0.201	>=1.001	>=7.5	>=7.5	1.51	0.801
< 100 nM	Cc1cc(C(=O)Nc2cccc([C@H](C)Sc3nncn3C)c2)nc(C(F)(F)F)c1	1.01	<=0.05	1.01	1.01	0.101	>=1.001	2.51	1.01	1.01	0.601
< 100 nM	COc1ccc(C(=O)Nc2cccc([C@H](C)Sc3nncn3C)c2)nc1C1CC1	1.01	<=0.05	1.01	1.01	0.101	>=1.001	2.51	1.01	1.01	0.601
< 100 nM	C[C@H](Sc1nncn1C)c1cccc(NC(=O)c2cccc(C3CC3)n2)c1	1.31	0.051	1.01	1.51	0.151	0.801	2.51	2.51	1.51	<=0.6
